From ChEMBL document CHEMBL4616670, “Phosphine Oxides from a Medicinal Chemist's Perspective: Physicochemical and in Vitro Parameters Relevant for Drug Discovery” (J Med Chem, 2020) come the findings set out here.

Data set [1] in a line: physchem. Particulars: pH 6.8 buffer.
Data set [2] can be described thus: physchem. Particulars: pH 6.8 buffer. This is another data set of the same source.
Data set [3] can be described thus: physchem. Particulars: octanol/water, pH 11.
Description: Octanol/water partition coefficient, log D of the compound at pH 11
Data set [4] in a line: physchem. The conditions noted are these: octanol/water, pH 2.
Description: Octanol/water partition coefficient, log D of the compound at pH 2
Data set [5] is described as follows: in vitro. The conditions noted are these: human, Caco-2.
Description: Permeability across apical to basolateral side in human Caco2 cells measured up to 2 hrs by LC-MS/MS analysis or scintillation counting method
Data set [6] is described as follows: in vitro. Particulars: human, Caco-2. This is another data set of the same source.
Description: Efflux ratio of permeability in human Caco2 cells measured up to 2 hrs by LC-MS/MS analysis or scintillation counting method
Data set [7] in a line: in vitro. Particulars: human, liver microsomes. Background: Microsomes from liver hold many membrane-bound enzymes, among them those of drug oxidation.
Description: Stability in human liver microsomes at 1 uM incubated prior to NADPH addition by LC-MS/MS analysis relative to hepatic blood flow
Data set [8] is described as follows: in vitro. Particulars: human, liver microsomes. The source holds these as a separate data set.
Description: Half life in human liver microsomes at 1 uM incubated prior to NADPH addition by LC-MS/MS analysis

In brackets after ≈: the same amount, converted by molar mass.

The term thermodynamic solubility denotes solubility found after equilibrating the solid with the medium. The term logD denotes lipophilicity at a set pH, counting ionised and neutral species. The low end stands for lower lipophilicity, the high end for higher lipophilicity. Take `C[S+]([O-])c1ccc(C(F)(F)F)cc1` (stereo unspecified): the thermodynamic solubility at 24 h was 11100 µg/mL (≈ 53300 µM) in “physchem [1]” and over 46 µg/mL in the data set “physchem [2]”. For the same compound, the figures for the logD in “physchem [3]” and in the data set “physchem [4]” were 1.4 and 1.7, respectively.

In general, Papp A→B refers to the apparent permeability from the apical to the basolateral side of a cell layer. A lower Papp A→B goes with slow passage. The efflux ratio is a quotient of directional permeabilities that is used to spot active efflux. Consider `CC(C)(C)NC(=O)c1ccc(C(F)(F)F)cc1`, for which the solubility (thermodynamic) at 24 h in “physchem [1]” came out at 10 µg/mL (≈ 40.8 µM); in the data set “physchem [2]”, 14 µg/mL (≈ 57.1 µM). Further, the figures for the logD in “physchem [3]” and in “physchem [4]” were 3.7 and 3.8, respectively. The Papp A→B at 2 h in the data set “in vitro [5]” was found to be 56 ×10⁻⁶ cm/s. Further, in “in vitro [6]”, the efflux ratio at 2 h came to 0.7.

As to `NC(=O)c1ccc(C(F)(F)F)cc1`, the solubility (thermodynamic) at 24 h was 300 µg/mL (≈ 1590 µM) in the data set “physchem [1]” and over 44 µg/mL in “physchem [2]”. Moreover, the Papp A→B at 2 h in the data set “in vitro [5]” stood at 68 ×10⁻⁶ cm/s. The efflux ratio at 2 h in the data set “in vitro [6]” stood at 1. For the same compound, in the data set “physchem [4]”, the pH-dependent lipophilicity (logD) came to 1.5.

On to `CN=S(C)(=O)c1ccc(C(F)(F)F)cc1` (stereo unspecified), for which the thermodynamic solubility at 24 h in the data set “physchem [1]” is 2400 µg/mL (≈ 10100 µM); in “physchem [2]”, over 54 µg/mL. The values for the logD in “physchem [3]” and in the data set “physchem [4]” were 1.7 and 0.7, respectively. The compound also had a Papp A→B at 2 h in “in vitro [5]” of 67 ×10⁻⁶ cm/s. Moreover, in the data set “in vitro [6]”, the efflux ratio at 2 h worked out at 1.

In the case of `CN=S(=O)(c1ccc(C(F)(F)F)cc1)N(C)C` (stereo unspecified), the thermodynamic solubility at 24 h in “physchem [1]” was 1200 µg/mL (≈ 4510 µM); in the data set “physchem [2]”, 49 µg/mL (≈ 184 µM). The logD is 2.9 in “physchem [3]” and 2.2 in the data set “physchem [4]”. Further, the Papp A→B at 2 h in “in vitro [5]” was 70 ×10⁻⁶ cm/s. The efflux ratio at 2 h in “in vitro [6]” is 0.8.

Take `CS(=O)(=O)c1ccc(C(F)(F)F)cc1`: the solubility (thermodynamic) at 24 h is 300 µg/mL (≈ 1340 µM) in the data set “physchem [1]” and over 47 µg/mL in “physchem [2]”.

For `CNS(=O)(=O)c1ccc(C(F)(F)F)cc1`, the thermodynamic solubility at 24 h in the data set “physchem [1]” is 900 µg/mL (≈ 3760 µM); in “physchem [2]” it was over 49 µg/mL. The same compound gave a Papp A→B at 2 h in “in vitro [5]” of 36 ×10⁻⁶ cm/s. Besides, the efflux ratio at 2 h in “in vitro [6]” turned out to be 0.9.

With `CNC(=O)c1ccc(C(F)(F)F)cc1`, the thermodynamic solubility at 24 h was 200 µg/mL (≈ 984 µM) in “physchem [1]” and over 51 µg/mL in “physchem [2]”. Moreover, the logD in the data set “physchem [3]” is 1.6; in the data set “physchem [4]”, 1.9. Further, the Papp A→B at 2 h in the data set “in vitro [5]” stood at 56 ×10⁻⁶ cm/s. Also, the efflux ratio at 2 h in the data set “in vitro [6]” was 0.9.

As to `CC(C)(C)OC(=O)c1ccc(C(F)(F)F)cc1`, the thermodynamic solubility at 24 h came to 20 µg/mL (≈ 81.2 µM) in “physchem [1]” and 7 µg/mL (≈ 28.4 µM) in the data set “physchem [2]”.

As to `NS(=O)(=O)c1ccc(C(F)(F)F)cc1`, the thermodynamic solubility at 24 h was 800 µg/mL (≈ 3550 µM) in “physchem [1]” and over 48 µg/mL in “physchem [2]”. For the same compound, the Papp A→B at 2 h in the data set “in vitro [5]” was 83 ×10⁻⁶ cm/s. For the same compound, in the data set “in vitro [6]”, the efflux ratio at 2 h is 0.6.

As to `CN(C)S(=O)(=O)c1ccc(C(F)(F)F)cc1`, the thermodynamic solubility at 24 h in the data set “physchem [1]” came to 90 µg/mL (≈ 355 µM); in the data set “physchem [2]”, 47 µg/mL (≈ 186 µM). Also, in the data set “physchem [4]”, the logD is 3.4.

With `CN=S(=O)(NC)c1ccc(C(F)(F)F)cc1` (stereo unspecified), the solubility (thermodynamic) at 24 h in the data set “physchem [1]” is 1200 µg/mL (≈ 4760 µM); in the data set “physchem [2]”, over 57 µg/mL. The logD stood at 1.8 in the data set “physchem [3]” and 0.7 in the data set “physchem [4]”. Further, the apical-to-basolateral permeability (Papp A→B) at 2 h in “in vitro [5]” came out at 81 ×10⁻⁶ cm/s. The efflux ratio at 2 h in “in vitro [6]” was 0.5.

Usually half-life stands for the time in which the quantity being followed falls by half. Regarding `CNC(=O)c1ccc(C(=O)Nc2ccc(C)c(Nc3nccc(-c4cccnc4)n3)c2)cc1`, in “in vitro [7]”, the hepatic extraction ratio at 1 µM was under 0.23. Further, the thermodynamic solubility at 24 h in the data set “physchem [2]” is under 1 µg/mL. Further, the logD in the data set “physchem [3]” turned out to be 1.7; in “physchem [4]”, 0.5. In addition, the apical-to-basolateral permeability (Papp A→B) at 2 h in “in vitro [5]” is 8 ×10⁻⁶ cm/s. Also, the half-life at 1 µM in the data set “in vitro [8]” was over 130 min. Moreover, in “in vitro [6]”, the efflux ratio at 2 h amounted to 4.9.

As to `CCOC(=O)c1ccc(C(=O)Nc2ccc(C)c(Nc3nccc(-c4cccnc4)n3)c2)cc1`, in “in vitro [7]”, the hepatic extraction ratio at 1 µM was over 0.88. Besides, the thermodynamic solubility at 24 h in the data set “physchem [2]” is under 1 µg/mL. Further, the logD in the data set “physchem [3]” amounted to 3.5; in the data set “physchem [4]”, 1.9. This compound returned a half-life at 1 µM in the data set “in vitro [8]” of under 5 min.
